The source of these data is patent publication US20250275541A1, “NEMATOSTATIC COMPOSITIONS, AND USE THEREOF IN AGRICULTURE” (AGRO INNOVATION INTERNATIONAL, priority 2019, published 2025).

Experiment [1] has as its system Meloidogyne javanica. The experiment in a line: Mobility of Meloidogyne javanica in the soil microcosm (Example 1). How it is done:
The nematodes will be distributed randomly in the layer of soil, depending on their mobility. After adding the test products and incubating for 6 h, the column of soil and the sieve were placed in a tube containing water. The mobile nematodes pass through the column of soil and migrate naturally into the water. The nematodes passing into the water can be counted. If the concentration of test product considered is inhibitory for the mobility of the nematodes in the presence of soil, the nematodes are kept in the column of soil and delayed in their migration into the water. The time for emergence of the nematodes from the column of soil is longer as the concentration of nematostatic product increases.

For experiment [2], the system named is Meloidogyne javanica. In words: Mobility of Meloidogyne javanica in the soil microcosm, different carboxylic acids (Example 3). As to conditions: Fluopyram 24 ppm (positive control), 5 h incubation. How it is done:
Juvenile nematodes of M. javanica were deposited on the surface of a column of sterile soil 2 cm thick resting on a sieve (cotton wool), 1 hour before adding the test products in order to allow them time to move in the porosity of the soil. The nematodes will be distributed randomly in the layer of soil, depending on their mobility. […] The mobile nematodes pass through the column of soil and migrate naturally into the water. The nematodes passing into the water can be counted.
If the concentration of test product considered is inhibitory for the mobility of the nematodes in the presence of soil, the nematodes are kept in the column of soil and delayed in their migration into the water. The time for emergence of the nematodes from the column of soil is longer as the concentration of nematostatic product increases.
The method is identical to that described in Example 1. […]

Setting [3] is: calcium formate 780 ppm alone, or with RD2 100 or 1000 ppm, 6 h incubation, kinetics over 144 h.

For `O=C[O-].O=C[O-].[Ca+2]` [calcium formate], the “nematodes that left the microcosm at 3 days” value in experiment [1] (at 3 days, calcium formate 780 ppm alone, or calcium formate 780 ppm + RD2 1000 ppm) turned out to be 92%. Further, in experiment [1] (setting [3]), the “nematodes affected reversibly in their mobility” value worked out at 62% and the “nematodes not affected in their mobility” value was 14%. The “nematodes affected irreversibly at 6 days” value in experiment [1] (calcium formate 780 ppm alone, or with RD2 100 or 1000 ppm, at 6 days) was determined as 24%.

For the compound `O=C(NCCc1ncc(C(F)(F)F)cc1Cl)c1ccccc1C(F)(F)F` [Fluopyram], the “nematodes that had left the microcosm of the soil after 160 hours” value in experiment [2] is recorded as “no nematode had left the microcosm”.
